Test system: tomato seedlings
Experiment: Tomato SAR trial, greenhouse foliar vigour (phytotoxicity) ratings (Example 9)
Conditions: 0, severe foliar injury; 10, foliage green in excellent health; each treatment followed by BONZI 5 ppm
Protocol: Tomatoes were seeded in a green house and the SAR compositions applied three separate times, first as a drench nine days after seeding, the second at the 2-leaf stage 15 days after seeding, and finally as a foliar application in the filed approximately two months from seeding. Each treatment was followed up by a 5 ppm application of a plant growth regulator comprising paclobutrazol available under the name BONZI from Syngenta, Greensboro, N.C. […] This procedure was replicated four times in a randomized complete block design. […] Phytotoxicity ratings were also taken in green house prior to transplanting.

Row | Structure (SMILES) | Greenhouse Evaluations: Foliar Vigour Ratings (0-10)
1 | CC1(C)CC[C@]2(C(=O)O)CC[C@]3(C)C(=CC[C@@H]4[C@@]5(C)CC[C@H](O)C(C)(C)[C@@H]5CC[C@]43C)[C@@H]2C1 [Sapogenin 6, Oleanolic acid] | 4.3
2 | COC(=O)[C@@]1(C)CC[C@]2(C(=O)O)CC[C@]3(C)C(=CCC4[C@@]5(C)CCC(O)[C@@](C)(CO)C5CC[C@]43C)C2C1 (stereo partly drawn) [Sapogenin 4, Phytolaccagenic acid] | 4.3
3 | CC1(C)CC[C@]2(C(=O)O)CC[C@]3(C)C(=CC[C@@H]4[C@@]5(C)CC[C@H](O)[C@@](C)(CO)[C@@H]5CC[C@]43C)[C@@H]2C1 [Sapogenin 5, Hederagenin] | 4.3
4 | CC1(C)CC[C@]2(C(=O)O)CC[C@]3(C)C(=CC[C@@H]4[C@@]5(C)CC[C@H](O)C(C)(C)[C@@H]5CC[C@]43C)[C@@H]2C1 [Sapogenin 3, Oleanolic acid] | 4.7
5 | CC1(C)CC[C@]2(C(=O)O)CC[C@]3(C)C(=CC[C@@H]4[C@@]5(C)CC[C@H](O)[C@@](C)(CO)[C@@H]5CC[C@]43C)[C@@H]2C1 [Sapogenin 2, Hederagenin] | 5.3
6 | COC(=O)[C@@]1(C)CC[C@]2(C(=O)O)CC[C@]3(C)C(=CCC4[C@@]5(C)CCC(O)[C@@](C)(CO)C5CC[C@]43C)C2C1 (stereo partly drawn) [Sapogenin 1, Phytolaccagenic acid] | 5.7

Source: patent publication US20050261129A1, “Method of protecting plants from bacterial and fungal diseases” (priority 2003, published 2005)
